For this assay, the target named is T1, Lipolase® 100L (Thermomyces lanuginosus, UniProt O59952).
T1 construct: purchased Sigma-Aldrich
T1 sequence (O59952 23-291): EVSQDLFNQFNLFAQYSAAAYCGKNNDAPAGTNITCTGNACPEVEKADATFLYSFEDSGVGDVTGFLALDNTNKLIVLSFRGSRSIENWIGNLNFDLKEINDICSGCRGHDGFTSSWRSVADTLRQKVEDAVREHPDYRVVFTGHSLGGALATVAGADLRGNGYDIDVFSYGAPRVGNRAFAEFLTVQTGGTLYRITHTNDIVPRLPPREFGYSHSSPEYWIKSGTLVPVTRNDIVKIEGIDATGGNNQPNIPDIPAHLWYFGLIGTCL
The assay can be described thus: Lipase storage stability in liquid formulations at 37° C. (pNP-valerate activity). Type of assay: biochemical, Thermomyces lanuginosa. The following applies: for lipase activity, 3 d: 3 d storage at 37° C.; for lipase activity, 7 d: 7 d storage at 37° C.; for lipase activity, 14 d: 14 d storage at 37° C.; for lipase activity, 21 d: 21 d storage at 37° C.; for lipase activity, 28 d: 28 d storage at 37° C.; for lipase activity, 35 d: 35 d storage at 37° C.; for lipase activity, T0: relative to 100% value of reference formulation at time 0. As for the experimental part:
The storage stability of Lipase was assessed at 37° C.
Base test formulations were manufactured by making base formulations I to V by mixing the components according to Table 1.
The respective component (a) or comparative compound was added, if applicable, to the respective base formulation in amounts as indicated in Table 1.
Lipase used: Lipolase® 100L (CAS-No. 9001-62-1, EC-No. 232-619-9) was purchased from Sigma-Aldrich.
The amount of lipase as provided in Table 1 refers to active protein.
Water was added to accomplish the balance to 100.
Lipolase activity at certain points in time as indicated in Table 2 was be determined by employing pNitrophenol-valerate (2.4 mM pNP-C5 in 100 mM Tris pH 8.0, 0.01% Triton X100) as a substrate. The absorption at 405 nm was measured at 20° C. every 30 seconds over 5 minutes.
The slope (absorbance increase at 405 nm per minute) of the time dependent absorption-curve is directly proportional to the activity of the lipase.
The […] activity values provided in Table 2 were calculated referring to the 100% value determined in the reference formulation at the time 0.
The nomenclature of formulations is as follows: the Roman number before the full stop characterizes the base formulation, the Arabian number the type of compound (A.# compound according to invention (component (a)); (B.#) comparative compound).

The mark [1] stands for this setting: base formulation II. (Lipolase 0.2 wt%, tested compound 2.5 wt%).
The mark [2] stands for this setting: base formulation III. (Lipolase 0.2 wt%, tested compound 2.0 wt%).
Setting [3] is: base formulation IV. (Lipolase 0.2 wt%, tested compound 2.0 wt%).
The mark [4] stands for this setting: base formulation V. (Lipolase 0.2 wt%, tested compound 2.0 wt%).
Where [5] appears, read: base formulation I. (Lipolase 0.2 wt%, tested compound 2.5 wt%).

Regarding `CCOC(=O)CC(O)(CC(=O)O)C(=O)O` (centres unmarked) [A.6, Monoethylcitrate], under setting [1], the “lipase activity, 3 d” value is recorded as 100%; the “lipase activity, 7 d” value is 95%; the “lipase activity, 14 d” value was determined as 91%; the “lipase activity, 21 d” value turned out to be 84%. Under setting [1], the “lipase activity, 28 d” value worked out at 80%; the “lipase activity, 35 d” value came out at 71%; the “lipase activity, T0” value is reported as 102%. For the same compound, under setting [2], the “lipase activity, 3 d” value stood at 96%; the “lipase activity, 7 d” value was found to be 91%; the “lipase activity, 14 d” value stood at 87%; the “lipase activity, 21 d” value was found to be 82%. Moreover, under setting [2], the “lipase activity, 28 d” value is 79%; the “lipase activity, 35 d” value is 74%; the “lipase activity, T0” value is listed as 96%. For the same compound, under setting [3], the “lipase activity, 3 d” value turned out to be 96%; the “lipase activity, 7 d” value is on record as 92%; the “lipase activity, 14 d” value came to 89%; the “lipase activity, 21 d” value is reported as 86%. Further, under setting [3], the “lipase activity, 28 d” value is reported as 85%; the “lipase activity, 35 d” value is reported as 78%; the “lipase activity, T0” value is reported as 98%.

With `O=C(CC(O)(CC(=O)OCc1ccccc1)C(=O)OCc1ccccc1)OCc1ccccc1` [A.8, Tribenzylcitrate], under setting [1], the “lipase activity, 3 d” value is listed as 94%; the “lipase activity, 7 d” value is given as 90%; the “lipase activity, 14 d” value stood at 87%; the “lipase activity, 21 d” value is 83%. Under setting [1], the “lipase activity, 28 d” value amounted to 81%; the “lipase activity, 35 d” value came to 77%; the “lipase activity, T0” value was 97%. For the same compound, under setting [4], the “lipase activity, 3 d” value is listed as 96%; the “lipase activity, 7 d” value is reported as 93%; the “lipase activity, 14 d” value stood at 88%; the “lipase activity, 21 d” value was determined as 85%. Under setting [4], the “lipase activity, 28 d” value was determined as 82%; the “lipase activity, 35 d” value worked out at 77%; the “lipase activity, T0” value was determined as 98%.

`O=C(O)CC(O)(CC(=O)O)C(=O)O` [B.1, citric acid, reference compound]: under setting [5], the “lipase activity, 3 d” value is 89%; the “lipase activity, 7 d” value is recorded as 81%; the “lipase activity, 14 d” value turned out to be 73%; the “lipase activity, 21 d” value worked out at 61%. Under setting [5], the “lipase activity, 28 d” value worked out at 50%; the “lipase activity, 35 d” value was determined as 29%; the “lipase activity, T0” value was determined as 100%. Also, under setting [2], the “lipase activity, 3 d” value came to 92%; the “lipase activity, 7 d” value came to 78%; the “lipase activity, 14 d” value is 70%; the “lipase activity, 21 d” value turned out to be 51%. Besides, under setting [2], the “lipase activity, 28 d” value is on record as 39%; the “lipase activity, 35 d” value stood at 30%; the “lipase activity, T0” value was 102%. For the same compound, under setting [3], the “lipase activity, 3 d” value amounted to 95%; the “lipase activity, 7 d” value amounted to 82%; the “lipase activity, 14 d” value was 70%; the “lipase activity, 21 d” value is 58%. Further, under setting [3], the “lipase activity, 28 d” value was determined as 43%; the “lipase activity, 35 d” value is 36%; the “lipase activity, T0” value is given as 97%. For the same compound, under setting [4], the “lipase activity, 3 d” value came out at 93%; the “lipase activity, 7 d” value is reported as 86%; the “lipase activity, 14 d” value is recorded as 74%; the “lipase activity, 21 d” value came out at 63%. Besides, under setting [4], the “lipase activity, 28 d” value came out at 52%; the “lipase activity, 35 d” value came out at 43%; the “lipase activity, T0” value was found to be 98%.

On to `O=C([O-])CC(O)(CC(=O)[O-])C(=O)[O-].[Na+].[Na+].[Na+]` [B.2, citric acid trisodiumsalt, reference compound], for which, under setting [5], the “lipase activity, 3 d” value was determined as 90%; the “lipase activity, 7 d” value is recorded as 81%; the “lipase activity, 14 d” value was 68%; the “lipase activity, 21 d” value was determined as 57%. Further, under setting [5], the “lipase activity, 28 d” value came out at 47%; the “lipase activity, 35 d” value was determined as 31%; the “lipase activity, T0” value is reported as 97%. Besides, under setting [1], the “lipase activity, 3 d” value was 95%; the “lipase activity, 7 d” value is 82%; the “lipase activity, 14 d” value turned out to be 63%; the “lipase activity, 21 d” value amounted to 56%. For the same compound, under setting [1], the “lipase activity, 28 d” value was found to be 41%; the “lipase activity, 35 d” value is 34%; the “lipase activity, T0” value is reported as 98%. Further, under setting [2], the “lipase activity, 3 d” value turned out to be 94%; the “lipase activity, 7 d” value is 80%; the “lipase activity, 14 d” value was 69%; the “lipase activity, 21 d” value was 53%. Further, under setting [2], the “lipase activity, 28 d” value is listed as 44%; the “lipase activity, 35 d” value came to 37%; the “lipase activity, T0” value stood at 101%. Moreover, under setting [3], the “lipase activity, 3 d” value came to 90%; the “lipase activity, 7 d” value was determined as 81%; the “lipase activity, 14 d” value was found to be 68%; the “lipase activity, 21 d” value was found to be 55%. Under setting [3], the “lipase activity, 28 d” value is given as 40%; the “lipase activity, 35 d” value was found to be 34%; the “lipase activity, T0” value is reported as 96%.

As for `CCOC(=O)C(=O)OCC` [B.3, diethyloxalate, reference compound], under setting [5], the “lipase activity, 3 d” value is 90%; the “lipase activity, 7 d” value is listed as 80%; the “lipase activity, 14 d” value came to 70%; the “lipase activity, 21 d” value was 54%. Under setting [5], the “lipase activity, 28 d” value stood at 45%; the “lipase activity, 35 d” value is listed as 37%; the “lipase activity, T0” value amounted to 97%. Under setting [2], the “lipase activity, 3 d” value is 94%; the “lipase activity, 7 d” value is 79%; the “lipase activity, 14 d” value came out at 69%; the “lipase activity, 21 d” value amounted to 50%. Further, under setting [2], the “lipase activity, 28 d” value is on record as 40%; the “lipase activity, 35 d” value was 32%; the “lipase activity, T0” value is 98%. Under setting [3], the “lipase activity, 3 d” value is reported as 93%; the “lipase activity, 7 d” value worked out at 86%; the “lipase activity, 14 d” value is reported as 74%; the “lipase activity, 21 d” value stood at 63%. Under setting [3], the “lipase activity, 28 d” value is 51%; the “lipase activity, 35 d” value is 46%; the “lipase activity, T0” value was found to be 98%. For the same compound, under setting [4], the “lipase activity, 3 d” value stood at 92%; the “lipase activity, 7 d” value is 85%; the “lipase activity, 14 d” value is 71%; the “lipase activity, 21 d” value stood at 65%. Besides, under setting [4], the “lipase activity, 28 d” value was 56%; the “lipase activity, 35 d” value turned out to be 46%; the “lipase activity, T0” value stood at 97%.

Source of the values: US20210395651A1, “COMPOUNDS STABILIZING HYDROLASES IN LIQUIDS” (BASF SE, priority 2018, published 2021).
